For one molecule, IC50 results are on record in BindingDB's records for doi:10.1111/j.1747-0285.2012.01443.x (Pfizer, 2012).

For the test, the target named is Tyrosine-protein kinase SYK (Homo sapiens, UniProt P43405). The test can be described thus: Syk Enzyme Assay. The conditions noted are these: pH 7.4; 25 °C. The source says: A Lance TR-FRET assay (Perkin Elmer) was used to measure and compare the potency of compounds against Syk kinase domain.

A word on the IC50: it is the concentration at which inhibition is half-maximal. Read a low IC50 as inhibition by little substance. For the molecule `COc1cc2nccc(Oc3ccc(NC(=O)N[C@@H]4C[C@H]4c4ccccc4)nc3)c2cc1OC` [Dimethoxyquinoline, 1], the IC50 was found to be 0.32 µM.
